Reference: patent US20140357512A1, “HISTONE DEACETYLASE (HDAC) BIOMARKERS IN MULTIPLE MYELOMA” (priority 2013, published 2014)

Tested on: human myeloma cell line MM.1S
Assay: SILAC acetylated-lysine peptide profiling, HDAC inhibitor vs DMSO (light/heavy ratio)
Format: cell-based
Excerpt: An embodiment of the invention comprises utilizing the SILAC method in order to quantitate changes in protein expression between two or more populations of cells. The SILAC method is a technique based on mass spectrometry that detects differences in protein abundance among samples using non-radioactive isotopic labeling. The SILAC method is known in the art, and described in detail in Ong et al., “Stable Isotope Labeling by Amino Acids in Cell Culture, SILAC, as a Simple and Accurate Approach to Expression Proteomics”, Molecular & Cellular Proteomics, vol. 1, pp. 376-386 (2002), which is incorporated herein by reference in its entirety.
Briefly, the SILAC method involves growing two populations of cells in cell culture. The first population of cells is grown in growth media containing normal amino acids (“normal media”). The second population of cells is grown in media lacking a standard essential amino acid (such as lysine), but is then supplemented with a non-radioactive, isotopically labeled form of that essential amino acid (such as lysine labeled with ^13C atoms, rather than normal ^12C atoms), which is called “heavy media”. When the two populations of cells are each growing in the medium, they incorporate the amino acids into all of their proteins. The growth of cells maintained in the heavy media is no different from that in normal media. All peptides containing the heavy amino acids are heavier than their normal counterparts. The cells from each of the two populations of cells are lysed. The lysates from each of the two cell populations are then combined. The combined cell lysates are then analyzed by mass spectrometry. Pairs of chemically identical peptides of different stable isotope composition can be differentiated in a mass spectrometer due to their difference in mass. The ratio of peak intensities in the mass spectrum for such peptide pairs reflects the abundance ratio for the two proteins.
This example describes SILAC studies that were performed to compare the effects of three different HDAC inhibitors (Compound A, Compound B, and tubastatin A) to a control on a human multiple myeloma cell line. The HDAC inhibitors were also compared amongst themselves to determine differences in their effects.
A human myeloma cell line MM.1S was grown using either ^12C (light) or ^13C (heavy) lysine containing culture medium. The “heavy” cells were treated with DMSO as the control, and the “light” cells were treated with a single HDAC inhibitor at 37° C. for 6 hours. The heavy and light cells were lysed, and the lysates were mixed in 1:1 ratio and digested with the protease trypsin. The acetylated lysine containing peptides (due to the action of the HDAC inhibitor) in the digested peptide pool were captured by a non-specific anti-acetylated lysine antibody cocktail (the antibodies identify both light and heavy acetylated peptides), and subjected to mass spectrometry analysis in order to identify thousands of individual peptides.
Thousands of peptides were identified in pairs (^12C and ^13C) due to their known mass differences. The amino acid sequence and quantitative ratio (Light/Heavy) of a given peptide in two differentially treated cell lysates were then determined and annotated with their possible protein (gene) sources.
As stated above, three HDAC inhibitors (Compound A, Compound B, and Tubastatin A) were used. Thus, the SILAC method was performed three times, with a different HDAC inhibitor compared to a control each time. Accordingly, there are three pairs of quantitative data in the table below, i.e., Compound A:DMSO, Compound B:DMSO, and Tubastatin A:DMSO. A cut-off of 1.30 fold of change (increase or decrease) was then used to determine “changed” or “+” in the table, and any peptides with a fold of change less than 1.3 fold were determined to be “unchanged” or “0” in the table. Those peptides that were not identified were marked as “NA” in the table. […]

SMILES: O=C(NO)c1cnc(NC2(c3cccc(F)c3)CCCCC2)nc1 [Compound B, 2-((1-(3-fluorophenyl)cyclohexyl)amino)-N-hydroxypyrimidine-5-carboxamide]
- L/H ratio of acetylated peptide (VETFSGVYK(ac)K (SEQ ID NO: 445), 40S ribosomal protein S7 [178], RPS7): −0.78 log 2
- L/H ratio of acetylated peptide (VEWAK(ac)FQER (SEQ ID NO: 447), Splicing factor 3A subunit 1 [251], SF3A1): −0.55 log 2
- light to heavy ratio (L/H ratio) of acetylated peptide, log 2 scale (VGIVGK(ac)YGTR (SEQ ID NO: 250), 60S ribosomal protein L37a [13], RPL37A): 0.00
- L/H ratio of acetylated peptide (VIIVVK(ac)DGPGFYTTR (SEQ ID NO: 401), Trifunctional enzyme subunit alpha mitochondrial [540], HADHA): −0.70 log 2
- L/H ratio of acetylated peptide TNEK(ac)VELQELNDR (SEQ ID NO: 122) (VIM [104], log 2 scale, drug vs DMSO): 0.00
- L/H ratio of acetylated peptide FANYIDK(ac)VR (SEQ ID NO: 118) (VIM [120], log 2 scale, drug vs DMSO): 0.00
- L/H ratio of acetylated peptide […](ac)GQGK (SEQ ID NO: 119) (VIM [139], log 2 scale, drug vs DMSO): 0.00
- L/H ratio of acetylated peptide SK(ac)[…] (SEQ ID NO: 121) (VIM [294], log 2 scale, drug vs DMSO): 0.00
- L/H ratio of acetylated peptide LQDEIQNMK(ac)EEMAR (SEQ ID NO: 120) (VIM [373], log 2 scale, drug vs DMSO): 0.00
- light to heavy ratio (L/H ratio) of acetylated peptide, log 2 scale (VVVGK(ac)[…] (SEQ ID NO: 193), Protein disulfide-isomerase A4 [533], PDIA4): 0.00
- L/H ratio of acetylated peptide (VYISK(ac)CYR (SEQ ID NO: 394), Isoform 1 of Regulator of micro-tubule dynamics protein 3 [426], FAM82A2): −0.85 log 2
- light to heavy ratio (L/H ratio) of acetylated peptide TLLIK(ac)TVETR (SEQ ID NO: 269) (Vimentin [445], VIM, drug:DMSO): 0.00 log 2
- L/H ratio of acetylated peptide (WTPEVK(ac)[…] (SEQ ID NO: 442), Rho-related GTP-binding protein RhoC [104], RHOC): −0.39 log 2
- light to heavy ratio (L/H ratio) of acetylated peptide IAAYK(ac)SILQER (SEQ ID NO: 531) (X-ray repair cross-complementing protein 5 [265], gene XRCC5, inhibitor:DMSO): 0.00 log 2
- light to heavy ratio (L/H ratio) of acetylated peptide EEAIK(ac)FSEEQR (SEQ ID NO: 509) (X-ray repair cross-complementing protein 5 [648], gene XRCC5, inhibitor:DMSO): 0.00 log 2
- light to heavy ratio (L/H ratio) of acetylated peptide […](ac)HFQD (SEQ ID NO: 355) (X-ray repair cross-complementing protein 6 [605], XRCC6, drug:DMSO): −0.74 log 2
- L/H ratio of acetylated peptide ALQEK(ac)VEIK (SEQ ID NO: 123) (XRCC5 [665], log 2 scale, drug vs DMSO): 0.00
- L/H ratio of acetylated peptide (YHVSEK(ac)PYGIVEK (SEQ ID NO: 424), NADH dehydrogenase [ubiquinone] 1 beta subcomplex subunit 6 [93], NDUFB6): −1.00 log 2
- L/H ratio of acetylated peptide (YK(ac)[…] (SEQ ID NO: 417), Microsomal glutathione S-transferase 3 [37], MGST3): −0.59 log 2
- light to heavy ratio (L/H ratio) of acetylated peptide, log 2 scale (YLENGK(ac)ETLQR (SEQ ID NO: 163), Putative HLA class I histocompatibility antigen alpha chain H [200], HLA-H): 0.00
- light to heavy ratio (L/H ratio) of acetylated peptide, log 2 scale (YNCDK(ac)MICR (SEQ ID NO: 254), Ubiquitin-605 ribosomal protein L40 [93], UBA52): 0.00
- L/H ratio of acetylated peptide (YPPPYK(ac)HFWTAES (SEQ ID NO: 461), Isoform 2 of Ubiquitin-associated protein 2-like [976], UBAP2L): −0.50 log 2
- L/H ratio of acetylated peptide (YTEQITNEK(ac)LAMVK (SEQ ID NO: 423), NADH dehydrogenase [ubiquinone] 1 alpha subcomplex subunit 5 [55], NDUFA5): −0.40 log 2
- light to heavy ratio (L/H ratio) of acetylated peptide, log 2 scale ([…](ac)AAVR (SEQ ID NO: 220), Tricarboxylate transport protein mitochondrial [97], SLC25A1): 0.00
- light to heavy ratio (L/H ratio) of acetylated peptide, log 2 scale ([…](ac)DETEFR (SEQ ID NO: 137), UPF0568 protein C14orf166 [20], C14orf166): 0.00
- L/H ratio of acetylated peptide ([…](ac)DGEIYCK (SEQ ID NO: 383), Cysteine and glycine-rich protein 1 [161], CSRP1): −0.67 log 2
- L/H ratio of acetylated peptide ([…](ac)EKLNER (SEQ ID NO: 406), 60 kDa heat shock protein mitochondrial [387], HSPD1): 0.40 log 2
- L/H ratio of acetylated peptide ([…](ac)FDENAK (SEQ ID NO: 429), Phosphoglycerate kinase 1 [291], PGK1): 0.60 log 2
- L/H ratio of acetylated peptide ([…](ac)FIAR (SEQ ID NO: 441), Protein RCC2 [293], RCC2): 0.75 log 2
- light to heavy ratio (L/H ratio) of acetylated peptide, log 2 scale ([…](ac)FSDDHYR (SEQ ID NO: 190), NAD(P) transhydrogenase mitochondrial [100], NNT): 0.00
- L/H ratio of acetylated peptide ([…](ac)FVER (SEQ ID NO: 460), cDNA FLJ40024 fis clone STOMA2007745 highly similar to UBIQUITIN-[…] E1 [119], UBA1): 0.44 log 2
- L/H ratio of acetylated peptide ([…](ac)GDSK(ac)NAK (SEQ ID NO: 392), Histone acetyltransferase p300 [1542:1546], EP300): 0.53 log 2
